The experiment addresses T1, human mPGES-1 (Homo sapiens, UniProt O14684).
T1 sequence (O14684 1-152): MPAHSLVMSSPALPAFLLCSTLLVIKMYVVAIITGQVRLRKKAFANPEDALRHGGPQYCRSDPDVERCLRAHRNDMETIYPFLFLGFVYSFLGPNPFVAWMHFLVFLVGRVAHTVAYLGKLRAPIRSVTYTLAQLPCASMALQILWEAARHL
In words: Microsomal prostaglandin E synthase biochemical assay. Particulars: microsome preparation containing human mPGES-1; PGH2 10.8 μM, GSH 2.5 mM, pH 6.8; PGE2 quantified by HTRF; average of at least n=2. As to the method: Compounds were tested as inhibitors of microsomal prostaglandin E synthase activity in microsomal prostaglandin E synthase assays and whole cell assays. These assays measure prostaglandin E2 (PGE2) synthesis which is taken as a measure of prostaglandin E synthase activity. Microsomal prostaglandin E synthase biochemical assays used microsomal prostaglandin E synthase-1 in microsomal preparations. The source of the microsomes can be for example interleukin-1β-stimulated human A549 cells (which express human mPGES-1) or Sf9 cells transfected with plasmids encoding human mPGES-1 cDNA.
A solution of test compound was added to a diluted microsome preparation containing human mPGES-1 and pre-incubated for 15 minutes in potassium phosphate buffer pH 6.8 with cofactor glutathione (GSH). Corresponding solutions without test compound were used as positive controls, and corresponding solutions without test compound and without microsomes were used as negative controls. The enzymatic reaction was then started by addition of the substrate PGH2 in an organic solution (dry acetonitrile).
The reaction was stopped after one minute by adding an acidic solution (pH 1.9) of ferric chloride and citrate (final concentrations 7 mM and 47 mM respectively), by which the PGH2 was sequestered (the PGH2 is reduced to mainly 12-hydroxy heptadecatrineoic acid (12-HHT) which is not detected by the subsequent PGE2 detection step). The resulting solution was then pH neutralized by addition of potassium phosphate buffer, prior to diluting an aliquot of the resulting solution in a weak potassium phosphate buffer (50 mM, pH 6.8) containing 0.2% BSA (w/v). […] The PGE2 formed was quantified by use of a commercial HTRF based kit (catalogue #62PG2PEC or #62P2APEC from Cisbio International). 100% activity was defined as the PGE2 production in positive controls subtracted by the PGE2 production in the negative controls. IC50 values were then determined using standard procedures.
`NS(=O)(=O)c1ccccc1S(=O)(=O)NC(=O)c1csc2ccccc12` [Example 40, N-(2-Sulfamoylphenyl)sulfonylbenzothiophene-3-carboxamide] registered a concentration for half-maximal inhibition (IC50) of 2200 nM.
To `CC(C)Oc1cc(C(=O)NS(=O)(=O)c2ccccc2S(N)(=O)=O)ccc1C#CC(C)(C)O` [Example 129, 4-(3-Hydroxy-3-methylbut-1-ynyl)-3-isopropoxy-N-(2-sulfamoylphenylsulfonyl)-benzamide] belongs 7000 nM; to `COc1cccc(-c2cc3cc(C(=O)NS(=O)(=O)c4ccccc4S(N)(=O)=O)ccc3o2)c1` [Example 74, 2-(3-Methoxyphenyl)-N-(2-sulfamoylphenylsulfonyl)benzofuran-5-carboxamide], 24 nM; to `COC(C)(C)C#Cc1ccc(C(=O)NS(=O)(=O)c2ccccc2S(N)(=O)=O)cc1` [Example 112, 4-(3-Methoxy-3-methylbut-1-ynyl)-N-(2-sulfamoylphenylsulfonyl)benzamide], 1400 nM.
Turning to `NS(=O)(=O)c1ccccc1S(=O)(=O)NC(=O)c1sc2cc(Cl)ccc2c1Cl` [Example 39, 3,6-Dichloro-N-(2-sulfamoylphenyl)sulfonyl-benzothiophene-2-carboxamide], the IC50 amounted to 82 nM.
To `CC(C)C#Cc1ccc(C(=O)NS(=O)(=O)c2ccccc2S(N)(=O)=O)cn1` [Example 99, 6-(3-Methylbut-1-ynyl)-N-(2-sulfamoylphenylsulfonyl)nicotinamide] belongs 400 nM; to `NS(=O)(=O)c1ccccc1S(=O)(=O)NC(=O)c1cnc(-c2cc3ccccc3o2)c(Cl)c1` [Example 147, 6-(Benzofuran-2-yl)-5-chloro-N-(2-sulfamoylphenylsulfonyl)nicotinamide], 54 nM; to `NS(=O)(=O)c1ccccc1S(=O)(=O)NC(=O)CC12CC3CC(CC(C3)C1)C2` [Example 16, 2-(1-Adamantyl)-N-(2-sulfamoylphenyl)sulfonyl-acetamide], 5200 nM.
`NS(=O)(=O)c1ccccc1S(=O)(=O)NC(=O)c1ccc(-c2ccc(Cl)c(Cl)c2)o1` [Example 36, 5-(3,4-Dichlorophenyl)-N-(2-sulfamoylphenyl)sulfonyl-furan-2-carboxamide] registered a half-inhibitory concentration (IC50) of 280 nM.
For `COCCOCCOc1cc(C(=O)NS(=O)(=O)c2ccccc2S(N)(=O)=O)cnc1-c1cc2ccccc2o1` [Example 135, 6-(Benzofuran-2-yl)-5-(2-(2-methoxyethoxy)ethoxy)-N-(2-sulfamoylphenylsulfonyl)-nicotinamide], half-maximal inhibition (IC50) was put at 81 nM.
`C[C@]1(C(=O)NS(=O)(=O)c2ccccc2S(N)(=O)=O)CC[C@H](c2cc3ccccc3o2)CC1` [Example 108, (1r,4r)-4-(Benzofuran-2-yl)-1-methyl-N-(2-sulfamoylphenylsulfonyl)cyclohexane-carboxamide] returned a half-maximal inhibitory concentration (IC50) of 7000 nM.
To `COCC#Cc1ccc(C(=O)NS(=O)(=O)c2ccccc2S(N)(=O)=O)cc1` [Example 53, 4-(3-Methoxyprop-1-ynyl)-N-(2-sulfamoylphenylsulfonyl)benzamide] belongs 1600 nM; to `CC(C)(C)C#Cc1ccc(C(=O)NS(=O)(=O)c2ccccc2S(N)(=O)=O)cc1` [Example 43, 4-(3,3-Dimethylbut-1-ynyl)-N-(2-sulfamoylphenylsulfonyl)benzamide], 28 nM.
To `NS(=O)(=O)c1ccccc1S(=O)(=O)NC(=O)c1ccc(C#CC2CCCC2)c(F)c1` [Example 146, 4-(Cyclopentylethynyl)-3-fluoro-N-(2-sulfamoylphenylsulfonyl)benzamide] belongs 15 nM; to `COc1cc(C(=O)NS(=O)(=O)c2ccccc2S(N)(=O)=O)cnc1C#CC1CCCCC1` [Example 138, 6-(Cyclohexylethynyl)-5-methoxy-N-(2-sulfamoylphenylsulfonyl)nicotinamide], 12 nM; to `NS(=O)(=O)c1ccccc1S(=O)(=O)NC(=O)c1c(F)cc(-c2cc3ccccc3o2)cc1F` [Example 152, 4-(Benzofuran-2-yl)-2,6-difluoro-N-(2-sulfamoylphenylsulfonyl)benzamide], 570 nM.
To `CC(C)(C)C#Cc1cccc(C(=O)NS(=O)(=O)c2ccccc2S(N)(=O)=O)c1` [Example 60, 3-(3,3-Dimethylbut-1-ynyl)-N-(2-sulfamoylphenylsulfonyl)benzamide] belongs 270 nM; to `COc1ccc(-c2cc3cc(C(=O)NS(=O)(=O)c4ccccc4S(N)(=O)=O)ccc3o2)cc1` [Example 75, 2-(4-Methoxyphenyl)-N-(2-sulfamoylphenylsulfonyl)benzofuran-5-carboxamide], 29 nM; to `CC(C)(O)c1cc2cc(C(=O)NS(=O)(=O)c3ccccc3S(N)(=O)=O)ccc2o1` [Example 124, 2-(2-Hydroxypropan-2-yl)-N-(2-sulfamoylphenylsulfonyl)benzofuran-5-carboxamide], 21000 nM.
In turn, `CC(C)(C)C#Cc1ccc(C(=O)NS(=O)(=O)c2ccccc2S(N)(=O)=O)cn1` [Example 116, 6-(3,3-Dimethylbut-1-ynyl)-N-(2-sulfamoylphenylsulfonyl)nicotinamide] displayed a half-maximal inhibitory concentration (IC50) of 350 nM.
To `NS(=O)(=O)c1ccccc1S(=O)(=O)NC(=O)c1ccc(Br)cc1F` [Example 14, 4-Bromo-2-fluoro-N-(2-sulfamoylphenyl)sulfonyl-benzamide] belongs 1400 nM; to `NS(=O)(=O)c1ccccc1S(=O)(=O)NC(=O)c1ccc(-c2nc3cccnc3o2)cc1` [Example 7, 4-(7Oxa-5,9-diazabicyclo [4.3.0]nona-2,4,8,10-tetraen-8-yl)-N-(2-sulfamoylphenyl)-sulfonyl-benzamide], 1000 nM; to `NS(=O)(=O)c1ccccc1S(=O)(=O)NC(=O)c1ccc(C#Cc2ccccn2)cc1` [Example 71, 4-(Pyridin-2-ylethynyl)-N-(2-sulfamoylphenylsulfonyl)benzamide], 1000 nM.
To `Cc1nc(-c2ccc(C(F)(F)F)cc2)sc1C(=O)NS(=O)(=O)c1ccccc1S(N)(=O)=O` [Example 26, 4-Methyl-N-(2-sulfamoylphenyl)sulfonyl-2-[4-(trifluoromethyl)phenyl]1,3-thiazole-5-carboxamide] belongs 120 nM.
Turning to `NS(=O)(=O)c1ccccc1S(=O)(=O)NC(=O)c1ccc2oc(-c3ccccn3)cc2c1` [Example 122, 2-(Pyridin-2-yl)-N-(2-sulfamoylphenylsulfonyl)benzofuran-5-carboxamide], the half-inhibitory concentration (IC50) amounted to 650 nM.
`NS(=O)(=O)c1ccccc1S(=O)(=O)NC(=O)c1ccc(-c2ccccc2)cc1` [Example 31, 4-Phenyl-N-(2-sulfamoylphenyl)sulfonyl-benzamide] gave an IC50 of 320 nM.
To `NS(=O)(=O)c1ccccc1S(=O)(=O)NC(=O)c1ccc(C#CC2CCCC2)cc1O` [Example 92, 4-(Cyclopentylethynyl)-2-hydroxy-N-(2-sulfamoylphenylsulfonyl)benzamide] belongs 19 nM; to `CC(C)(C)C#Cc1ncc(C(=O)NS(=O)(=O)c2ccccc2S(N)(=O)=O)cn1` [Example 96, 2-(3,3-Dimethylbut-1-ynyl)-N-(2-sulfamoylphenylsulfonyl)pyrimidine-5-carboxamide], 1700 nM.
To `CC(C)Oc1cc(C(=O)NS(=O)(=O)c2ccccc2S(N)(=O)=O)ccc1C#CC(C)(C)C` [Example 128, 4-(3,3-Dimethylbut-1-ynyl)-3-isopropoxy-N-(2-sulfamoylphenylsulfonyl)benzamide] belongs 45 nM.
To `NS(=O)(=O)c1ccccc1S(=O)(=O)NC(=O)[C@H]1CC[C@@H](c2cc3ccccc3o2)CC1` [Example 105, (1s,4s)-4-(Benzofuran-2-yl)-N-(2-sulfamoylphenylsulfonyl)cyclohexanecarboxamide] belongs 2100 nM; to `NS(=O)(=O)c1ccccc1S(=O)(=O)NC(=O)c1ccc(C#CC2CCCC2)nc1` [Example 93, 6-(Cyclopentylethynyl)-N-(2-sulfamoylphenylsulfonyl)nicotinamide], 58 nM.
For `NS(=O)(=O)c1ccccc1S(=O)(=O)NC(=O)c1ccc(-c2cc3ccccc3o2)c(CO)c1` [Example 103, 4-(Benzofuran-2-yl)-3-(hydroxymethyl)-N-(2-sulfamoylphenylsulfonyl)benzamide], the IC50 was 15 nM.
`CC(C)(C)C#Cc1ncc(C(=O)NS(=O)(=O)c2ccccc2S(N)(=O)=O)cc1Cl` [Example 149, 5-Chloro-6-(3,3-dimethylbut-1-ynyl)-N-(2-sulfamoylphenylsulfonyl)nicotinamide] came in with an IC50 of 64 nM.
To `NS(=O)(=O)c1ccccc1S(=O)(=O)NC(=O)c1ccc(C#CC2CCCC2)c(CO)c1` [Example 98, 4-(Cyclopentylethynyl)-3-(hydroxymethyl)-N-(2-sulfamoylphenylsulfonyl)benzamide] belongs 110 nM.

Broadly, the IC50 is the concentration that gives 50% inhibition. Low readings indicate higher potency, high ones lower potency.

The values above are taken from US20090131468A1, “Bis-(Sulfonylamino) Derivatives in Therapy 065” (AstraZeneca AB, priority 2007, published 2009).
